Where two headings read alike, the source gives them in different places.
What was measured:
[1] = system: Atto(pep)-Stop-POST5 (RFC-dependent termination); test: Plate reader fluorescence anisotropy assay of pentapeptide release; assay type: biochemical, shrimp (Artemia salina); details: absence of ataluren
Experimental: Plate reader assays were run in a Tecan F200® 96-well plate reader (Greiner® black, non-binding, chimney flat) equipped with 640 nm excitation and 700 nm polarization filters using 96-well plates. Atto(pep)-Stop-POST5 in Buffer 4 (0.1 μM, 80 μl) containing GTP (1 mM) was added to plate wells±ataluren at 25° C. eRF1 and eRF3 aliquots stored at −80° C. were thawed for 15 s at 37° C. and added directly to a premade ice-cold GTP (1 mM)±ataluren solution in Buffer 4. The resulting release factor solution was incubated at 25° C. for 1 min, and then added quickly in 80 μL portions to the Atto(pep)-Stop-POST5 containing wells with a multichannel pipette to the Atto(pep)-Stop-Posts wells. The final concentrations were: eRF1, 0.025-0.4 μM; eRF3, 0.8 μM; Atto(pep)-Stop-Posts, 0.05 μM. Fluorescence anisotropy decay graphs were fit with GraphPad Prism, using the one phase decay model to obtain peptide dissociation rates.
Ensemble fluorescence anisotropy results using Atto(pep)-Stop-POST5. The fluorescence anisotropy of the pentapeptidyl moiety of Atto(pep)-Stop-POST5 was quite high (0.22), and decreased following addition of RFC, providing a convenient measure of the rate of pentapeptide release from the ribosome. […] Each such time dependency could be fit to a single exponential, giving the collected rate constants presented in FIG. 9G, in which the rate dependence as a function of RFC concentration was measured at 0, 200, 500, and 1,000 μM ataluren. In the absence of ataluren, EC50 (0.029±0.002 μM) and Vmax (0.31±0.02) values were obtained for pentapeptide release similar to those measured by smTIRF. In addition, as with the smTIRF results, Vmax values were unaffected by added ataluren but EC50 values increased, reaching ˜0.06 μM at 1000 μM.

[2] = system: Stop-POST5 complex (RFC-dependent termination); test: smTIRF assay of RFC-dependent peptide and tRNA release; assay type: biochemical, shrimp (Artemia salina)
Experimental: Immobilization of ribosome Stop-POST 5 complexes. PEGylated flow chambers were incubated in 0.5 mg/ml streptavidin for 5 mins and washed with Buffer 4. Biotinylated Stop-POST5 containing FK(atto647)VRQ-tRNA^Gln (Cy3) in the P-site, was formed at room temperature by incubating Stop-POST4, eEF1A, GTP, and Gln-(Cy3)tRNA^Gln for 5 mins and then injected into the streptavidin-coated slide chamber. After a 5 min incubation, excess unbound ribosome was flowed out. Then eRF1/eRF3±TRIDs was injected dynamically at 3 sec while recording. The injection dead time was subtracted for each particle.
Single-molecule fluorescence imaging. All sm-TIRF studies were carried out at 24° C. All dilutions, complex formation, and single-molecule imaging were carried out in Buffer 4 with an added enzymatic oxygen scavenging system of 2 mM protocatechuic acid (PCA), 50 nM protocatechunate 3,4 dioxygenase (PCD, Sigma Aldrich), 1 mM cyclooctatetraene (COT, Sigma Aldrich), 1 mM 4-nitrobenzyl alcohol (NBA, Sigma Aldrich), and 1.5 mM 6-hydroxy-2,5,7,8-tetramethyl-chromane-2-carboxylic acid (Trolox, Sigma-Aldrich) (Flis et al., Cell reports, 25(10), 2676-2688 (2018).
Image stacks were recorded at 100 ms frame rate on a custom-built objective-type total internal reflection fluorescence (TIRF) microscope based on a commercial inverted microscope (Eclipse Ti-E, Nikon) and capable of performing alternating-laser excitation (ALEX) between 532 nm and 640 nm laser beams using an acousto-optic tunable filter (AOTF, Chen et al., 2011). For the time-lapse experiment, timing of the movies, programmed into NIS-Elements (Nikon) microscope software, were recorded by illuminating the sample for 50-20 frames at 10 frames per s with 15 s or […] intervening dark intervals. Video recording was started and then eRF1/eRF3±TRIDs was injected from a triggered syringe pump at 3 sec while recording. The injection dead time was subtracted for each particle. Triggering of the shutters, AOTF, and pump was synchronized using LabView scripts driven from the camera exposure signal.
Data analysis. Collected movies were analyzed by a custom-made software program developed as an ImageJ plugin (Chen et al., Mol. Cell, 42, 367-377 (2011)), and further analyzed using Python. Distributions of peptide and tRNA dissociation times were fit to eq (5), using maximum likelihood estimation (Bevington and Robinson. Data Reduction and Error Analysis for the Physical Sciences. New York: McGraw-Hill, (2002); Woody et al., Biophys. J. 111, 273-282 (2016)), where P is the probability density.
smTIRF results using Atto(pep)-Cy-Stop-POST5 attached to surface-immobilized ribosomes. Although the distance between the two fluorophores is not close enough to produce FRET, fluorescent pairs could be identified by co-localization on the slide under alternating 532 nm and 640 nm total internal reflection fluorescence (TIRF) illumination. This permits near-simultaneous monitoring of the dynamics of peptide and P-site tRNA release from the Stop-POST5 complex following RFC binding.
To reduce photobleaching of each fluorophore, time-lapse movies were recorded with bursts of 20 or 50 frames at 100 ms frame intervals interleaved by 20 s intervals with the lasers shuttered. Total recording time for each trial was 20 min.
FIG. 8A and FIG. 8C show typical frame by frame recordings indicating a loss of signal for both labeled peptide and labeled tRNA after the addition of the RFC to Atto(pep)-Cy(tRNA)-Stop-POST5. Either peptide (a) or tRNA (b) can dissociate first, in approximately equal proportions. Photobleaching of Cy3-labeled tRNA and Atto647-labeled peptide in the absence of eRF1/eRF3 was much slower (FIG. 8E and FIG. 8F). Under the time lapse illumination employed, mean lifetimes for Atto647-peptide and Cy3-tRNA at 0.32 μM eRF1 and 2 μM eRF3 were each 2.45 min. […]

[3] = system: Stop-POST5 complex (RFC-dependent termination); test: as above; assay type: biochemical, shrimp (Artemia salina); details: saturating RFC (0.65 μM eRF1, 1.3 μM eRF3)
Trp-PRE6 complex = test: smFRET translocation of Trp-PRE6 to Trp-POST6; assay type: biochemical; details: 23° C.
Source text: Changes in FRET (FIGS. 16E-16G) were used to determine the rate of translocation (FIG. 16H) and the residence time of deacylated tRNA dissociation from the E-site (FIG. 16I) as functions of [eEF2.GTP].

[4] = 0.32 μM eRF1 and 2 μM eRF3, time lapse illumination
[5] = absence of ataluren, Michaelis-Menten fit

Q: What does the source list for “RFC: release factor complex of eRF1 and eRF3 with GTP catalysing termination”?
A: EC50 [1]: 29 ± 2 nM; Vmax, pentapeptide release [1]: 0.31±0.02; mean lifetime, Atto647-peptide [2, 4]: 2.45 min; mean lifetime, Cy3-tRNA [2, 4]: 2.45 min; peptide release rate constants, As 2nd product ([2]; [RFC] 0.016 μM): 0.12 ± 0.03 min⁻¹; peptide release rate constants, Overall ([2]; [RFC] 0.016 μM): 0.13 ± 0.02 min⁻¹; tRNA release rate constants, As 2nd product ([2]; [RFC] 0.016 μM): 0.086 ± 0.023 min⁻¹; tRNA release rate constants, Overall ([2]; [RFC] 0.016 μM): 0.10 ± 0.02 min⁻¹; peptide release rate constants, As 2nd product ([2]; [RFC] 0.032 μM): 0.15 ± 0.02 min⁻¹; peptide release rate constants, Overall ([2]; [RFC] 0.032 μM): 0.16 ± 0.02 min⁻¹; tRNA release rate constants, As 2nd product ([2]; [RFC] 0.032 μM): 0.063 ± 0.021 min⁻¹; tRNA release rate constants, Overall ([2]; [RFC] 0.032 μM): 0.12 ± 0.02 min⁻¹; peptide release rate constants, As 2nd product ([2]; [RFC] 0.080 μM): 0.15 ± 0.02 min⁻¹; peptide release rate constants, Overall ([2]; [RFC] 0.080 μM): 0.21 ± 0.02 min⁻¹; tRNA release rate constants, As 2nd product ([2]; [RFC] 0.080 μM): 0.12 ± 0.02 min⁻¹; tRNA release rate constants, Overall ([2]; [RFC] 0.080 μM): 0.17 ± 0.03 min⁻¹; peptide release rate constants, As 2nd product ([2]; [RFC] 0.166 μM): 0.19 ± 0.02 min⁻¹; peptide release rate constants, Overall ([2]; [RFC] 0.166 μM): 0.24 ± 0.01 min⁻¹; tRNA release rate constants, As 2nd product ([2]; [RFC] 0.166 μM): 0.14 ± 0.03 min⁻¹; tRNA release rate constants, Overall ([2]; [RFC] 0.166 μM): 0.18 ± 0.02 min⁻¹; peptide release rate constants, As 2nd product ([2]; [RFC] 0.32 μM): 0.24 ± 0.03 min⁻¹; peptide release rate constants, Overall ([2]; [RFC] 0.32 μM): 0.26 ± 0.02 min⁻¹; tRNA release rate constants, As 2nd product ([2]; [RFC] 0.32 μM): 0.17 ± 0.03 min⁻¹; tRNA release rate constants, Overall ([2]; [RFC] 0.32 μM): 0.20 ± 0.02 min⁻¹; peptide release rate constants, As 2nd product ([2]; [RFC] 0.65 μM): 0.23 ± 0.04 min⁻¹; peptide release rate constants, Overall ([2]; [RFC] 0.65 μM): 0.27 ± 0.03 min⁻¹; tRNA release rate constants, As 2nd product ([2]; [RFC] 0.65 μM): 0.23 ± 0.04 min⁻¹; tRNA release rate constants, Overall ([2]; [RFC] 0.65 μM): 0.21 ± 0.03 min⁻¹; peptide release rate constants, As 2nd product ([2]; [RFC] 1.61 μM): 0.25 ± 0.03 min⁻¹; peptide release rate constants, Overall ([2]; [RFC] 1.61 μM): 0.26 ± 0.02 min⁻¹; tRNA release rate constants, As 2nd product ([2]; [RFC] 1.61 μM): 0.15 ± 0.02 min⁻¹; tRNA release rate constants, Overall ([2]; [RFC] 1.61 μM): 0.20 ± 0.02 min⁻¹; Vmax, peptide dissociation [2, 5]: ~0.27 ± 0.02 min⁻¹; Vmax, tRNA dissociation [2, 5]: 0.20 ± 0.02 min⁻¹; EC50 ([2]; absence of ataluren, read-out: EC50, peptide dissociation): ~20 nM; EC50 ([2]; absence of ataluren, read-out: EC50, tRNA dissociation): ~20 nM; rate constant, Atto(pep)-Cy(rbsm)-Stop-POST5 [3]: 0.26 ± 0.03 min⁻¹; rate constant, Atto(rbsm)-Cy(tRNA)-Stop-POST5 [3]: 0.20 ± 0.03 min⁻¹

B1: eEF2: yeast eukaryotic elongation factor 2 (protein, UniProt P32324 1-842, looked up)
Elongation factor 2: MVAFTVDQMRSLMDKVTNVRNMSVIAHVDHGKSTLTDSLVQRAGIISAAKAGEARFTDTRKDEQERGITIKSTAISLYSEMSDEDVKEIKQKTDGNSFLINLIDSPGHVDFSSEVTAALRVTDGALVVVDTIEGVCVQTETVLRQALGERIKPVVVINKVDRALLELQVSKEDLYQTFARTVESVNVIVSTYADEVLGDVQVYPARGTVAFGSGLHGWAFTIRQFATRYAKKFGVDKAKMMDRLWGDSFFNPKTKKWTNKDTDAEGKPLERAFNMFILDPIFRLFTAIMNFKKDEIPVLLEKLEIVLKGDEKDLEGKALLKVVMRKFLPAADALLEMIVLHLPSPVTAQAYRAEQLYEGPADDANCIAIKNCDPKADLMLYVSKMVPTSDKGRFYAFGRVFAGTVKSGQKVRIQGPNYVPGKKDDLFIKAIQRVVLMMGRFVEPIDDCPAGNIIGLVGIDQFLLKTGTLTTSETAHNMKVMKFSVSPVVQVAVEVKNANDLPKLVEGLKRLSKSDPCVLTYMSESGEHIVAGTGELHLEICLQDLEHDHAGVPLKISPPVVAYRETVESESSQTALSKSPNKHNRIYLKAEPIDEEVSLAIENGIINPRDDFKARARIMADDYGWDVTDARKIWCFGPDGNGPNLVIDQTKAVQYLHEIKDSVVAAFQWATKEGPIFGEEMRSVRVNILDVTLHADAIHRGGGQIIPTMRRATYAGFLLADPKIQEPVFLVEIQCPEQAVGGIYSVLNKKRGQVVSEEQRPGTPLFTVKAYLPVNESFGFTGELRQATGGQAFPQMVFDHWSTLGSDPLDPTSKAGEIVLAARKRHGMKEEVPGWQEYYDKL
Q: Which “kcat, translocation” value (Trp-PRE6 complex) does the source give for B1 here?
A: 1.0 s⁻¹

Q: What about the Km (Trp-PRE6 complex; read-out: Km^eEF2, translocation) of the same molecule?
A: 0.28 µM

— patent US20230235374A1, “High Throughput Assays for Detecting Translation Readthrough Inducers” (The Trustees of the University of Pennsylvania, priority 2021, published 2023)
